The text below walks through data of the Kinase Knowledgebase extract (Sharma et al. 2016).

Bounds are passed on as bounds.

Assay [1] addresses EGFR (mouse) (UniProt P00533). The conditions noted are these: balb/c 3t3.
In assay [2] the target is EGFR (mouse) (UniProt P00533). The conditions noted are these: balb/mk.
The target in assay [3] is EGFR (UniProt P00533).
EGFR, sequence (P00533 whole entry, looked up): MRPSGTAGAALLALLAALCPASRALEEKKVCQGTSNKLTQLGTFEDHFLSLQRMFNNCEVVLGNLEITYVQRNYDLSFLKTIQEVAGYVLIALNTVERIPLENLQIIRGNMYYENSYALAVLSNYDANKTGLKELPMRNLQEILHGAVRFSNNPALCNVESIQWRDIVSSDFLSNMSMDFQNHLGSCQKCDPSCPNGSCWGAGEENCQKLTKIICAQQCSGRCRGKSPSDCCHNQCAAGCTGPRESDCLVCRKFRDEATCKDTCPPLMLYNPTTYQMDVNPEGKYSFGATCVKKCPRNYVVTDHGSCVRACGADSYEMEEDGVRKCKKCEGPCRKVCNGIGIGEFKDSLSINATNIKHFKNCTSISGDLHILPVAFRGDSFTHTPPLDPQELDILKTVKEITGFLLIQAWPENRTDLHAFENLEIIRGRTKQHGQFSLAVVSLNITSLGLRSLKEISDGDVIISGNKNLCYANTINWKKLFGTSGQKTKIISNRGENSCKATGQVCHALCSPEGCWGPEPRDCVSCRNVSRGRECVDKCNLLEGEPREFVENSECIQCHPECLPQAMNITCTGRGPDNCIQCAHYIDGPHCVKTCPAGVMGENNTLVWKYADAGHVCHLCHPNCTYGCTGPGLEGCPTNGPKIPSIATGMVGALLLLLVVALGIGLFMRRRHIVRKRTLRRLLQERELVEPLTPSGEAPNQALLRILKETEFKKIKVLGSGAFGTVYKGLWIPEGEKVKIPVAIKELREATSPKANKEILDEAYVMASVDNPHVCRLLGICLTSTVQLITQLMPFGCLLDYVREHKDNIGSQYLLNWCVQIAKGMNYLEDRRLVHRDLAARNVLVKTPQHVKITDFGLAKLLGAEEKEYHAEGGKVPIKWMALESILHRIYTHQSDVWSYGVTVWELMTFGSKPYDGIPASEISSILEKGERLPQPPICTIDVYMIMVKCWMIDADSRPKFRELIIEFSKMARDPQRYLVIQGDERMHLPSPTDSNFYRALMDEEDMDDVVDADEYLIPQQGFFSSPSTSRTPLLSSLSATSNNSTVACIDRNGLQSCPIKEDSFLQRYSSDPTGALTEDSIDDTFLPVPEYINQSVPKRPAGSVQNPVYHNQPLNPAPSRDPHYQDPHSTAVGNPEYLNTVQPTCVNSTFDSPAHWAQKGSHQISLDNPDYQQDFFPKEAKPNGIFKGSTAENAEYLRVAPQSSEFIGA

Broadly, the IC50 is the concentration that inhibits the measured activity by half. Consider `CC(C)(C)OC(=O)Nc1ccc(-c2n[nH]c3ncnc(Nc4cccc(Cl)c4)c23)cc1`, for which, in assay [1], the IC50 was > 10 µM. The same measure, in the same setting: the same measure for `COc1cccc(CNc2n[nH]c3ncnc(Nc4cccc(Cl)c4)c23)c1`: > 10 µM; for `Nc1cccc(-c2n[nH]c3ncnc(Nc4cccc(Cl)c4)c23)c1`: > 10 µM; for `Clc1cccc(CNc2n[nH]c3ncnc(Nc4cccc(Cl)c4)c23)c1`: > 10 µM. Regarding `Clc1cccc(Nc2n[nH]c3ncnc(Nc4ccccc4)c23)c1`, in assay [1], the IC50 is > 10 µM. In the case of `Clc1cccc(Nc2ncnc3[nH]nc(-c4ccccc4)c23)c1`, in assay [1], the IC50 is > 10 µM. In the case of `O=[N+]([O-])c1cccc(-c2n[nH]c3ncnc(Nc4cccc(Cl)c4)c23)c1`, the IC50 in assay [2] was > 50 µM; in assay [1], > 10 µM. Taken in the same sequence, the figures for `Nc1ncnc2c1c(-c1ccccc1)nn2-c1ccccc1` were > 50 µM and > 10 µM. As for `Cc1cccc(Nc2ncnc3[nH]nc(Nc4cccc(Cl)c4)c23)c1`, the IC50 in assay [1] was > 10 µM. In the case of `Oc1ccc(Nc2n[nH]c3ncnc(Nc4cccc(Cl)c4)c23)cc1`, the IC50 in assay [1] was > 10 µM. The same measure, in the same setting: as for `Oc1cccc(-c2n[nH]c3ncnc(Nc4cccc(Cl)c4)c23)c1`, the figure is > 10 µM. On the same count and under the same terms, as for `Clc1cccc(Nc2n[nH]c3ncnc(Nc4cccc(Br)c4)c23)c1`, the figure is > 10 µM; as for `Clc1cccc(Nc2ncnc3[nH]nc(NCc4ccccc4)c23)c1`, > 10 µM; as for `COc1cccc(Nc2n[nH]c3ncnc(Nc4cccc(Cl)c4)c23)c1`, > 10 µM. On the same count and under the same terms, as for `Nc1ccc(-c2n[nH]c3ncnc(Nc4cccc(Cl)c4)c23)cc1`, the figure is > 10 µM. As for `Clc1cccc(Nc2n[nH]c3ncnc(Oc4cccc(Cl)c4)c23)c1`, the IC50 in assay [2] was > 50 µM; in assay [1] it was 10 µM. In assay [3], `Cc1c(C)n(C)c2ncnc(Nc3cccc(Cl)c3)c12` yielded an IC50 of 0.45 µM. With `Clc1cccc(Nc2n[nH]c3ncnc(NCc4ccccc4)c23)c1`, the IC50 in assay [1] is > 10 µM. Still for that read-out and setting: the same measure for `c1ccc(Nc2ncnc3[nH]nc(Nc4ccccc4)c23)cc1`: > 10 µM. Still for that read-out and setting: the same measure for `Oc1cccc(Nc2n[nH]c3ncnc(Nc4cccc(Cl)c4)c23)c1`: > 10 µM; for `COc1ccc(CNc2n[nH]c3ncnc(Nc4cccc(Cl)c4)c23)cc1`: > 10 µM.

Take `Oc1ccc(-c2n[nH]c3ncnc(Nc4cccc(Cl)c4)c23)cc1`: the IC50 in assay [1] was > 10 µM. On to `Nc1ncnc2[nH]nc(Nc3cccc(Cl)c3)c12`, for which, in assay [1], the IC50 is > 10 µM. Still for that read-out and setting: the same measure for `COc1ccc(-c2n[nH]c3ncnc(Nc4cccc(Cl)c4)c23)cc1`: > 10 µM; for `Nc1nc(N)c2c(Nc3cccc(Cl)c3)n[nH]c2n1`: > 10 µM.
